In brackets after ≈: the same amount, converted by molar mass.
How the values were obtained:
Format in all cases: cell-based
Streptococcus pneumoniae = assay: Anti-microbial activity assay, MIC by broth microdilution (CAMHB with 5% horse serum); settings: Streptococcus pneumoniae; strain ATCC49619; CAMHB with 5% horse serum; read-out: MIC Streptococcus pneumoniae ATCC49619
Experimental: (§1) Anti-Microbial Activity Assay.
(§2) The antibacterial activity of compounds is determined by the minimal inhibitory concentration (MIC) method. MICs for all bacteria except pneumococci and Haemophilus influenzae are obtained by broth microdilution with cation-adjusted Mueller-Hinton broth (CAMHB; BBL), according to CLSI guidelines (National Committee for Clinical Laboratory Standards. 2003. Methods for dilution antimicrobial susceptibility tests for bacteria that grow aerobically, 5th ed.; approved standard M7-A6. National Committee for Clinical Laboratory Standards, Wayne, Pa.), with the following modifications: (i) for pneumococci CAMHB is supplemented with 5% (^v/v) horse serum; (ii) for Haemophilus influenzae CAMHB is supplemented with 5% (^v/v) Fildes enrichment (BBL) (Pankuch, G. A., Hoellman, D. B., Lin, G., Bajaksouzian, S., Jacobs, M. R., and Appelbaum, P. C. 1998. Activity of HMR 3647 compared to those of five agents against Haemophilus influenzae and Moraxella catarrhalis by MIC determination and time-kill assay. Antimicrob. Agents Chemother. 42:3032-3034). Microtiter plates are incubated at 35° C. in ambient air for 20 to 24 h, then inspected using an illuminated microtiter plate reader fitted with a magnifying mirror (MIC 2000; Cooke Laboratory Products, Alexandria, Va.). Compounds of the present invention are tested against several bacteria strains comprising some Acinetobacter baumannii, Enterococcus faecalis, Enterococcus faecitan, Escherichia coli, Haemophilus influenzae, Klebsiella pneumoniae, Pseudomonas aeruginosa, Staphylococcus aureus, Staphylococcus epidermidis and Streptococcus pneumoniae.

[1] = test system: Staphylococcus aureus and/or Staphylococcus epidermidis; assay: MIC summary statement, staphylococci; settings: generally, for Staphylococcus aureus and/or Staphylococcus epidermidis
Experimental: as §1, §2

[2] = test system: Staphylococcus aureus and/or Staphylococcus epidermidis and/or Streptococcus pneumoniae; assay: MIC summary statement, staphylococci and pneumococci; settings: generally, for Staphylococcus aureus and/or Staphylococcus epidermidis and/or Streptococcus pneumoniae
Experimental: as §1, §2

Staphylococcus aureus = assay: Anti-microbial activity assay, MIC by broth microdilution; settings: Staphylococcus aureus; strain ATCC29213; read-out: MIC Staphylococcus aureus ATCC29213
Experimental: as §1, §2

Escherichia coli = assay: as above; settings: Escherichia coli; strain UB1005; read-out: MIC Escherichia coli UB1005
Experimental: as §1, §2

[3] = test system: Staphylococcus epidermidis; assay: as above; settings: Staphylococcus epidermidis; strain ATCC14990
Experimental: as §1, §2

Structure (SMILES)	MIC (Streptococcus pneumoniae)	MIC [1]	MIC [2]	MIC (Staphylococcus aureus)	MIC (Escherichia coli)	MIC [3]
COc1ccc2ncc(OCC[C@H]3CC[C@H](NC(=O)c4ccc5c(c4)NC(=O)CS5)CC3)cc2n1 [Example 2, 3-oxo-3,4-dihydro-2H-benzo[1,4]thiazine-6-carboxylic acid {trans-4-[2-(6-methoxy-[1,5]naphthyridin-3-yloxy)-ethyl]-cyclohexyl}-amide]	≤ 2 µg/mL	≤ 2 µg/mL	≤ 2 µg/mL	≤ 2 µg/mL	> 32 µg/mL	≤ 2 µg/mL
COc1ccc2ncc(OCCN3CCC(NC(=O)c4cc(-c5cccs5)on4)CC3)nc2c1 [Example 5, 5-thiophen-2-yl-isoxazole-3-carboxylic acid {1-[2-(7-methoxy-quinoxalin-2-yloxy)-ethyl]-piperidin-4-yl}-amide]	≤ 2 µg/mL	≤ 2 µg/mL	≤ 2 µg/mL	≤ 2 µg/mL	> 32 µg/mL	≤ 2 µg/mL
O=C1CSc2ccc(C(=O)N[C@H]3CC[C@H](CCOc4cnc5ccc(F)cc5n4)CC3)cc2N1 [Example 7, 3-oxo-3,4-dihydro-2H-benzo[1,4]thiazine-6-carboxylic acid {trans-4-[2-(7-fluoro-quinoxalin-2-yloxy)-ethyl]-cyclohexyl}-amide]	> 32 µg/mL	≤ 2 µg/mL		≤ 2 µg/mL	> 32 µg/mL	> 32 µg/mL
COc1ccc2ncc(OCCCN3CC(NC(=O)c4ccc5c(c4)NC(=O)CS5)C3)nc2c1 [Example 8, 3-oxo-3,4-dihydro-2H-benzo[1,4]thiazine-6-carboxylic acid {1-[3-(7-methoxy-quinoxalin-2-yloxy)-propyl]-azetidin-3-yl}-amide]	16 µg/mL (≈ 33.4 µM)	≤ 2 µg/mL		≤ 2 µg/mL	16 µg/mL (≈ 33.4 µM)	4 µg/mL (≈ 8.34 µM)
COc1ccc2ncc(OC(CN3CCC(NC(=O)c4ccc5c(c4)NC(=O)CS5)CC3)C(F)(F)F)nc2c1 (stereo not shown) [Example 14, 3-oxo-3,4-dihydro-2H-benzo[1,4]thiazine-6-carboxylic acid {1-[3,3,3-trifluoro-2-(7-methoxy-quinoxalin-2-yloxy)-propyl]-piperidin-4-yl}-amide]	8 µg/mL (≈ 14.2 µM)	≤ 2 µg/mL		≤ 2 µg/mL	> 32 µg/mL	8 µg/mL (≈ 14.2 µM)
COc1ccc2ncc(OCCN3CCC(NC(=O)c4cc5c(cc4Cl)SCC(=O)N5)CC3)nc2c1 [Example 15, 7-chloro-3-oxo-3,4-dihydro-2H-benzo[1,4]thiazine-6-carboxylic acid {1-[2-(7-methoxy-quinoxalin-2-yloxy)-ethyl]-piperidin-4-yl}-amide]	8 µg/mL (≈ 15.2 µM)	≤ 2 µg/mL		≤ 2 µg/mL	4 µg/mL (≈ 7.58 µM)	≤ 2 µg/mL
COc1ccc2ncc(OCCN3CCC(NC(=O)c4cc5c(cc4Cl)SCC(=O)N5)CC3)cc2n1 [Example 16, 7-chloro-3-oxo-3,4-dihydro-2H-benzo[1,4]thiazine-6-carboxylic acid {1-[2-(6-methoxy-[1,5]naphthyridin-3-yloxy)-ethyl]-piperidin-4-yl}-amide]	8 µg/mL (≈ 15.2 µM)	≤ 2 µg/mL		≤ 2 µg/mL	8 µg/mL (≈ 15.2 µM)	4 µg/mL (≈ 7.58 µM)
COc1ccc2ccc(OCCN3CCC(NC(=O)c4ccc5c(n4)NC(=O)CS5)CC3)nc2c1 [Example 17, 3-oxo-3,4-dihydro-2H-pyrido[3,2-b][1,4]thiazine-6-carboxylic acid {1-[2-(7-methoxy-quinolin-2-yloxy)-ethyl]-piperidin-4-yl}-amide]	16 µg/mL (≈ 32.4 µM)	≤ 2 µg/mL		≤ 2 µg/mL	> 32 µg/mL	4 µg/mL (≈ 8.1 µM)
COc1cnc2ccc(OCCN3CCC(NC(=O)c4ccc5c(c4)NC(=O)CS5)CC3)nc2c1 [Example 18, 3-oxo-3,4-dihydro-2H-benzo[1,4]thiazine-6-carboxylic acid {1-[2-(7-methoxy-[1,5]naphthyridin-2-yloxy)-ethyl]-piperidin-4-yl}-amide]	4 µg/mL (≈ 8.1 µM)	≤ 2 µg/mL		≤ 2 µg/mL	8 µg/mL (≈ 16.2 µM)	≤ 2 µg/mL
COc1cnc2ccc(OCCN3CCC(NC(=O)c4cc5c(cc4Cl)SCC(=O)N5)CC3)nc2c1 [Example 19, 7-chloro-3-oxo-3,4-dihydro-2H-benzo[1,4]thiazine-6-carboxylic acid {1-[2-(7-methoxy-[1,5]naphthyridin-2-yloxy)-ethyl]-piperidin-4-yl}-amide]	8 µg/mL (≈ 15.2 µM)	≤ 2 µg/mL		≤ 2 µg/mL	4 µg/mL (≈ 7.58 µM)	≤ 2 µg/mL
COc1ccc2ncc(OCCN3CCC(NC(=O)c4ccc5c(n4)NC(=O)CS5)CC3)nc2c1 [Example 20, 3-oxo-3,4-dihydro-2H-pyrido[3,2-b][1,4]thiazine-6-carboxylic acid {1-[2-(7-methoxy-quinoxalin-2-yloxy)-ethyl]-piperidin-4-yl}-amide]	> 32 µg/mL	≤ 2 µg/mL		≤ 2 µg/mL	> 32 µg/mL	≤ 2 µg/mL
COc1ccc2ncc(C(=O)OC[C@H]3CC[C@H](NC(=O)c4ccc5c(c4)NC(=O)CS5)CC3)cc2c1 [Example 28, 6-methoxy-quinoline-3-carboxylic acid trans-4-[(3-oxo-3,4-dihydro-2H-benzo[1,4]thiazine-6-carbonyl)-amino]-cyclohexylmethyl ester]	> 32 µg/mL	≤ 2 µg/mL		≤ 2 µg/mL	> 32 µg/mL	≤ 2 µg/mL
COc1ccc2ncc(C(=O)OC[C@H]3CC[C@H](NCc4ccc5c(c4)OCCO5)CC3)cc2n1 [Example 29, 6-methoxy-[1,5]naphthyridine-3-carboxylic acid trans-4-[(2,3-dihydro-benzo[1,4]dioxin-6-ylmethyl)-amino]-cyclohexylmethyl ester]	4 µg/mL (≈ 8.63 µM)	≤ 2 µg/mL		≤ 2 µg/mL	> 32 µg/mL	≤ 2 µg/mL
COc1ccc2ncc(C(=O)OC[C@H]3CC[C@H](NC(=O)c4ccc5c(n4)NC(=O)CO5)CC3)cc2n1 [Example 30, 6-methoxy-[1,5]naphthyridine-3-carboxylic acid trans-4-[(3-oxo-3,4-dihydro-2H-pyrido[3,2-b][1,4]oxazine-6-carbonyl)-amino]-cyclohexylmethyl ester]	> 32 µg/mL	≤ 2 µg/mL		≤ 2 µg/mL	> 32 µg/mL	4 µg/mL (≈ 8.14 µM)
COc1ccc2ncc(C(=O)OC[C@H]3CC[C@H](NCCSc4cccs4)CC3)cc2n1 [Example 31, 6-methoxy-[1,5]naphthyridine-3-carboxylic acid trans-4-[2-(thiophen-2-ylsulfanyl)-ethylamino]-cyclohexylmethyl ester]	8 µg/mL (≈ 17.5 µM)	≤ 2 µg/mL		≤ 2 µg/mL	> 32 µg/mL	4 µg/mL (≈ 8.74 µM)
COc1ccc2ncc(SCCN3CCC(NC(=O)c4cc(-c5cccs5)on4)CC3)nc2c1 [Example 35, 5-thiophen-2-yl-isoxazole-3-carboxylic acid {1-[2-(7-methoxy-quinoxalin-2-ylsulfanyl)-ethyl]-piperidin-4-yl}-amide]	≤ 2 µg/mL	≤ 2 µg/mL	≤ 2 µg/mL	≤ 2 µg/mL	> 32 µg/mL	≤ 2 µg/mL
COc1ccc2ncc(SCCN3CCC(NC(=O)c4nc5c(cc4Cl)SCC(=O)N5)CC3)cc2c1 [Example 56, 7-chloro-3-oxo-3,4-dihydro-2H-pyrido[3,2-b][1,4]thiazine-6-carboxylic acid {1-[2-(6-methoxy-quinolin-3-ylsulfanyl)-ethyl]-piperidin-4-yl}-amide]	16 µg/mL (≈ 29.4 µM)	≤ 2 µg/mL		≤ 2 µg/mL	4 µg/mL (≈ 7.35 µM)	4 µg/mL (≈ 7.35 µM)

Reference: patent US9133219B2, “Bicyclic antibiotics” (Basilea Pharmaceutica AG, priority 2009, dated 2015)
